Laboratory results: ChEMBL document CHEMBL1177798, “Interaction of aminoadamantane derivatives with the influenza A virus M2 channel-docking using a pore blocking model” (Bioorg Med Chem Lett, 2010)

Molecular target: Matrix protein 2 (Influenza A virus, UniProt P06821)
Experiment: Binding affinity to Influenza A Weybridge(H7N7) virus Matrix protein 2 by spectrophotometry; call rule not given here
Parameters: species or system Influenza A virus (A/chicken/FPV/Weybridge(H7N7))

Matrix protein 2, sequence (P06821 whole entry): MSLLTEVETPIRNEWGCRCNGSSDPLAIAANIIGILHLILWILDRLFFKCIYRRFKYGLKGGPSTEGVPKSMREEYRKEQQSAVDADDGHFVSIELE

For `NC1CCCC1` [CYCLOPENTANAMINE], the Kd was “Not Active”.
